# Reference: patent publication US20220274947A1, “NOVEL HETEROARYL-TRIAZOLE COMPOUNDS AS PESTICIDES” (Bayer Aktiengesellschaft, priority 2019, published 2022)
# Legend:
# Type in all cases: in vivo
# [1] = test system: Musca domestica strain WHO—N; assay: Musca domestica test (MUSCDO surface treatment & contact assay); details: exposure 30 minutes, 24 hours after contact, read-out: efficacy (mortality); for mortality at 20 mg/m2: surface concentration 20 mg/m^2, glazed tile
# Outline: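 Compound dissolved in acetone (2 mg/ml) with 2000 ppm rapeseed oil methyl ester and pipetted onto glazed tile; after acetone evaporation, adult flies exposed to dried surface for 30 minutes. Mortality (%) scored 24 hours after contact.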
# Rhipicephalus microplus [2] = assay: Rhipicephalus (Boophilus) microplus in-vitro contact test, larval cattle tick, strain Parkhurst (BOOPMI Cont); details: application rate 5 μg/cm^2 (=500 g/ha), tick larvae, after 48 hours, read-out: activity (efficacy: 100% means all larvae are dead or moribund)
# Outline: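 Acetone solutions dried onto glass tube walls (900 ppm giving 5 μg/cm^2); 20-50 pyrethroid-resistant Parkhurst larvae added per tube and held 48 h at 27° C., 85% relative humidity. Efficacy scored by negative geotaxis as % dead or moribund larvae.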
# Spodoptera frugiperda = Spodoptera frugiperda spray test; details: in Zea mays, 168 h, read-out: activity (mortality)
# Outline: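 Maize leaf sections were sprayed with compound formulated in acetone/DMF and diluted in water containing 1000 ppm emulsifier. Dried leaves were infested with fall armyworm larvae, and percent mortality was scored after 7 days.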
# Diabrotica balteata = Diabrotica balteata spray test; details: 168 h, wheat seeds, larvae, after 7 days, read-out: activity (efficacy: 100% means all seedlings have grown up like in the untreated, uninfected control); for pest or weed control at 32 µg/disc, 100 g/ha: application rate 100 g/ha (=32 μg/well); for pest or weed control at 160 µg/disc, 500 g/ha: application rate 500 g/ha (=160 μg/well)
# Outline: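 Wheat seedlings, germinated 1 day on agar, were sprayed with compound in acetone/DMF diluted in water containing emulsifier, then infested with 10-20 Diabrotica balteata larvae. After 7 days efficacy in % was scored: 100% means seedlings grew like the untreated, uninfected control; 0% means none grew.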
# Nezara viridula = Nezara viridula spray test; details: in Hordeum vulgare, 96 h, barley plants, larvae, after 4 days; for mortality at 500 g/ha: application rate 500 g/ha; for mortality at 100 g/ha: application rate 100 g/ha
# Method: Nezara viridula—Spray Test Solvent: 78.0 parts by weight of acetone • • 1.5 parts by weight of dimethylformamide Emulsifier: alkylarylpolyglycol ether
# To produce a suitable preparation of active compound, 1 part by weight of active compound is mixed with the stated amount of solvent, and the concentrate is diluted with water, containing an emulsifier concentration of 1000 ppm, to the desired concentration. Further test concentrations are prepared by dilution with emulsifier containing water.
# Barley plants (Hordeum vulgare) infested with larvae of the southern green stink bug (Nezara viridula) are sprayed with a test solution containing the desired concentration of the active ingredient.
# After 4 days mortality in % is determined. 100% means all the stink bugs have been killed; 0% means none of the stink bugs have been killed.
# Rhipicephalus microplus [3] = assay: Rhipicephalus (Boophilus) microplus injection test (BOOPMI Inj); details: 168 h, injection into adult engorged female ticks, egg deposition after 7 days, read-out: activity (efficacy: 100% means all eggs are infertile); for pest or weed control at 0.004 mg: application rate 4 μg/tick; for pest or weed control at 0.02 mg: application rate 20 μg/tick
# Outline: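 Five engorged adult female R. microplus ticks injected into the abdomen with 1 μL of compound diluted in DMSO, then kept in a climate chamber. Fertile egg deposition checked after 7 days; eggs without visible fertility held until hatching at about 42 days. Efficacy: 100% = all eggs infertile, 0% = all fertile.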
# Ctenocephalides felis [4] = assay: Ctenocephalides felis oral test (CTECFE Oral); details: 48 h, read-out: activity (mortality)
# Outline: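 About 20 unfed adult cat fleas fed through parafilm on cattle blood containing compound (DMSO concentrate diluted in blood to the desired concentration). Blood held at 37 °C, fleas at room temperature. Mortality (%) scored after 2 days.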
# Myzus persicae = Myzus persicae oral test; details: 120 h, read-out: activity (mortality)
# Outline: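 Percent mortality was recorded at day 5, where 0% means no aphids killed. Compound prepared from an acetone concentrate diluted in water and combined with IPL41 medium containing sugar was offered to mixed-stage green peach aphids, which sucked it through a parafilm seal.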
# Rhipicephalus sanguineus = Rhipicephalus sanguineus in-vitro contact test, adult brown dog ticks (RHIPSA Cont); details: 48 h, after 48 hours, read-out: activity (efficacy: 100% means all ticks are dead or moribund); for pest or weed control at 5 µg/cm2, 500 g/ha: application rate 5 μg/cm^2 (=500 g/ha); for pest or weed control at 1 µg/cm2, 100 g/ha: application rate 1 μg/cm^2 (=100 g/ha)
# Outline: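 Mortality of adult R. sanguineus was judged 48 h after contact with acetone-applied residues on glass tube walls. Ticks that stayed immotile or moved without coordination when heated to 45–50 °C (max 5 min) counted as dead or moribund.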
# [5] = test system: Aedes aegypti strain MONHEIM; assay: Aedes aegypti test (AEDSAE surface treatment & contact assay); details: exposure 30 minutes, 24 hours after contact, read-out: efficacy (mortality); for mortality at 4 mg/m2: surface concentration 4 mg/m^2, glazed tile
# Outline: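 Compound dissolved in acetone (2 mg/ml) with 2000 ppm rapeseed oil methyl ester, pipetted onto glazed tile and dried. Adult mosquitoes exposed on the surface for 30 min; percent mortality scored 24 h after contact.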
# Ctenocephalides felis [6] = assay: Ctenocephalides felis in-vitro contact test, adult cat flea (CTECFE Cont); details: application rate 5 μg/cm^2 (=500 g/ha), adult cat fleas, after 48 hours, read-out: activity (efficacy: 100% means all fleas are dead or moribund)
# Method: Ctenocephalides felis—In-Vitro Contact Tests Adult Cat Flea (CTECFE Cont)
# 9 mg compound is solved in 1 mL acetone and diluted with acetone to the desired concentration. 250 μL of the test solution is filled in 25 mL glass test tubes and homogeneously distributed on the inner walls by rotation and tilting on a shaking device (2 h at 30 rpm). With a compound concentration of 900 ppm, an inner surface of 44.7 cm^2 and a homogeneous distribution, a dose of 5 μg/cm^2 is achieved.
# After the solvent has evaporated, each test tube is filled with 5-10 adult cat fleas (Ctenocephalides felis), closed with a perforated lid and incubated in a lying position at room temperature and relative humidity. After 48 hours efficacy is determined. The fleas are patted on the ground of the tubes and are incubated on a heating plate at 45-50° C. for at most 5 minutes. Immotile or uncoordinated moving fleas, which are not able to escape the heat by climbing upwards, are marked as dead or moribund.
# An efficacy of 100% means all fleas are dead or moribund; 0% means no fleas are dead or moribund.
smiles,measurement,setting,value
C[C@H](NC(=O)c1cc(C(F)(F)F)cc(C(F)(F)F)c1)c1nc(C2CC2)nn1-c1ccc(C#N)cn1 [I-4],mortality at 20 mg/m2,[1],80 to 100%
same,pest or weed control at 5 µg/cm2,Rhipicephalus microplus [2],100%
same,mortality at 100 g/ha,Spodoptera frugiperda,100%
same,mortality at 500 g/ha,Spodoptera frugiperda,100%
same,"pest or weed control at 32 µg/disc, 100 g/ha",Diabrotica balteata,100%
same,"pest or weed control at 160 µg/disc, 500 g/ha",Diabrotica balteata,100%
same,mortality at 500 g/ha,Nezara viridula,90%
same,pest or weed control at 0.004 mg,Rhipicephalus microplus [3],100%
same,pest or weed control at 0.02 mg,Rhipicephalus microplus [3],100%
"C[C@H](NC(=O)c1cc(Cl)cc(C(F)(F)F)c1)c1nc(C2CC2)nn1-c1ccc(C#N)cn1 [I-6, 3-chloro-N-{(1S)-1-[1-(5-cyanopyridin-2-yl)-3-cyclopropyl-1H-1,2,4-triazol-5-yl]ethyl}-5-(trifluoromethyl)benzamide]",mortality at 20 mg/m2,[1],80 to 100%
same,pest or weed control at 5 µg/cm2,Rhipicephalus microplus [2],100%
same,mortality at 100 g/ha,Spodoptera frugiperda,100%
same,mortality at 500 g/ha,Spodoptera frugiperda,100%
same,"pest or weed control at 32 µg/disc, 100 g/ha",Diabrotica balteata,100%
same,"pest or weed control at 160 µg/disc, 500 g/ha",Diabrotica balteata,100%
same,mortality at 500 g/ha,Nezara viridula,100%
same,pest or weed control at 0.004 mg,Rhipicephalus microplus [3],100%
same,pest or weed control at 0.02 mg,Rhipicephalus microplus [3],100%
COc1nc([C@H](C)NC(=O)c2cc(Cl)cc(Cl)c2)n(-c2ccc(C#N)cn2)n1 [I-15],mortality at 100 ppm,Ctenocephalides felis [4],100%
same,mortality at 4 ppm,Myzus persicae,100%
same,pest or weed control at 5 µg/cm2,Rhipicephalus microplus [2],100%
same,"pest or weed control at 5 µg/cm2, 500 g/ha",Rhipicephalus sanguineus,80%
same,mortality at 100 g/ha,Spodoptera frugiperda,100%
same,mortality at 500 g/ha,Spodoptera frugiperda,100%
same,mortality at 4 mg/m2,[5],80 to 100%
same,"pest or weed control at 32 µg/disc, 100 g/ha",Diabrotica balteata,100%
same,"pest or weed control at 160 µg/disc, 500 g/ha",Diabrotica balteata,100%
same,pest or weed control at 0.004 mg,Rhipicephalus microplus [3],100%
same,pest or weed control at 0.02 mg,Rhipicephalus microplus [3],100%
same,pest or weed control at 5 µg/cm2,Ctenocephalides felis [6],80%
C[C@H](NC(=O)c1cc(Cl)cc(C(F)(F)F)c1)c1nc(C(C)(C)C)nn1-c1ccc(C#N)cn1 [I-38],mortality at 20 mg/m2,[1],80 to 100%
same,pest or weed control at 5 µg/cm2,Rhipicephalus microplus [2],100%
same,"pest or weed control at 1 µg/cm2, 100 g/ha",Rhipicephalus sanguineus,100%
same,"pest or weed control at 5 µg/cm2, 500 g/ha",Rhipicephalus sanguineus,80%
same,mortality at 100 g/ha,Spodoptera frugiperda,83%
same,"pest or weed control at 32 µg/disc, 100 g/ha",Diabrotica balteata,100%
same,mortality at 100 g/ha,Nezara viridula,100%
same,pest or weed control at 0.004 mg,Rhipicephalus microplus [3],100%
same,pest or weed control at 0.02 mg,Rhipicephalus microplus [3],100%
C[C@H](NC(=O)c1cc(Cl)cc(C(F)F)c1)c1nc(C2CC2)nn1-c1ccc(C#N)cn1 [I-42],mortality at 100 ppm,Ctenocephalides felis [4],100%
same,mortality at 20 mg/m2,[1],80 to 100%
same,pest or weed control at 5 µg/cm2,Rhipicephalus microplus [2],100%
same,mortality at 100 g/ha,Spodoptera frugiperda,100%
same,mortality at 4 mg/m2,[5],80 to 100%
same,mortality at 20 mg/m2,"[5]; surface concentration 20 mg/m^2, glazed tile",80 to 100%
same,"pest or weed control at 32 µg/disc, 100 g/ha",Diabrotica balteata,100%
same,mortality at 100 g/ha,Nezara viridula,100%
same,pest or weed control at 0.004 mg,Rhipicephalus microplus [3],100%
C[C@H](NC(=O)c1cc(Cl)cc(SC(F)F)c1)c1nc(C2CC2)nn1-c1ccc(C#N)cn1 [I-46],mortality at 100 ppm,Ctenocephalides felis [4],100%
same,mortality at 20 mg/m2,[1],80 to 100%
same,pest or weed control at 5 µg/cm2,Rhipicephalus microplus [2],100%
same,mortality at 100 g/ha,Spodoptera frugiperda,100%
same,"pest or weed control at 32 µg/disc, 100 g/ha",Diabrotica balteata,100%
same,mortality at 100 g/ha,Nezara viridula,100%
same,pest or weed control at 0.004 mg,Rhipicephalus microplus [3],100%
C[C@H](NC(=O)c1cc(OC(F)F)cc(OC(F)F)c1)c1nc(C2CC2)nn1-c1ccc(C#N)cn1 [I-47],mortality at 100 ppm,Ctenocephalides felis [4],90%
same,mortality at 4 mg/m2,"[1]; surface concentration 4 mg/m^2, glazed tile",80 to 100%
same,mortality at 20 mg/m2,[1],80 to 100%
same,pest or weed control at 5 µg/cm2,Rhipicephalus microplus [2],100%
same,"pest or weed control at 1 µg/cm2, 100 g/ha",Rhipicephalus sanguineus,100%
same,"pest or weed control at 5 µg/cm2, 500 g/ha",Rhipicephalus sanguineus,80%
same,mortality at 100 g/ha,Spodoptera frugiperda,100%
same,mortality at 4 mg/m2,[5],80 to 100%
same,"pest or weed control at 32 µg/disc, 100 g/ha",Diabrotica balteata,80%
same,mortality at 100 g/ha,Nezara viridula,100%
same,pest or weed control at 0.004 mg,Rhipicephalus microplus [3],100%
C[C@H](NC(=O)c1cc(Cl)cc(C(F)(F)F)c1)c1ncnn1-c1ccc(C(=O)N(C)CC(F)(F)F)cn1 [II-69],mortality at 100 ppm,Ctenocephalides felis [4],100%
same,mortality at 4 ppm,Myzus persicae,100%
same,pest or weed control at 5 µg/cm2,Rhipicephalus microplus [2],100%
same,"pest or weed control at 1 µg/cm2, 100 g/ha",Rhipicephalus sanguineus,100%
same,"pest or weed control at 5 µg/cm2, 500 g/ha",Rhipicephalus sanguineus,100%
same,mortality at 100 g/ha,Spodoptera frugiperda,83%
same,mortality at 500 g/ha,Spodoptera frugiperda,100%
same,"pest or weed control at 32 µg/disc, 100 g/ha",Diabrotica balteata,80%
same,pest or weed control at 0.004 mg,Rhipicephalus microplus [3],100%
same,pest or weed control at 0.02 mg,Rhipicephalus microplus [3],100%
same,pest or weed control at 5 µg/cm2,Ctenocephalides felis [6],90%
Cc1nc([C@H](C)NC(=O)c2cc(Cl)cc(C(F)(F)C(F)(F)F)c2)n(-c2ccc(C#N)cn2)n1 [II-75],mortality at 100 ppm,Ctenocephalides felis [4],100%
same,mortality at 4 ppm,Myzus persicae,100%
same,pest or weed control at 5 µg/cm2,Rhipicephalus microplus [2],100%
same,"pest or weed control at 1 µg/cm2, 100 g/ha",Rhipicephalus sanguineus,100%
same,"pest or weed control at 5 µg/cm2, 500 g/ha",Rhipicephalus sanguineus,100%
same,mortality at 100 g/ha,Spodoptera frugiperda,100%
same,"pest or weed control at 32 µg/disc, 100 g/ha",Diabrotica balteata,100%
same,pest or weed control at 0.004 mg,Rhipicephalus microplus [3],100%
same,pest or weed control at 0.02 mg,Rhipicephalus microplus [3],100%
same,pest or weed control at 5 µg/cm2,Ctenocephalides felis [6],90%
C[C@H](NC(=O)c1cc(Br)cc(OC(F)(F)F)c1)c1ncnn1-c1cc(C#N)ccn1 [II-107],mortality at 100 ppm,Ctenocephalides felis [4],100%
same,mortality at 4 ppm,Myzus persicae,100%
same,pest or weed control at 5 µg/cm2,Rhipicephalus microplus [2],100%
same,"pest or weed control at 1 µg/cm2, 100 g/ha",Rhipicephalus sanguineus,100%
same,"pest or weed control at 5 µg/cm2, 500 g/ha",Rhipicephalus sanguineus,100%
same,mortality at 100 g/ha,Spodoptera frugiperda,100%
same,"pest or weed control at 32 µg/disc, 100 g/ha",Diabrotica balteata,100%
same,pest or weed control at 0.004 mg,Rhipicephalus microplus [3],100%
same,pest or weed control at 5 µg/cm2,Ctenocephalides felis [6],100%
